Test results from patent US8361487B1, “Ant controllers and method for application thereof” (BASF Aktiengesellschaft, priority 1999, dated 2013).

These compounds were tested on Coptotermes formosanus Shiraki (assay: Test Example 1: termite-killing test on treated filter paper). Settings: mortality class; 1 ml of a 500 ppm solution on filter paper, seven days after inoculation, triplicate group of 10 insects.
Format: in vivo
Experimental: A filter paper was spread in a glass dish having a diameter of 9 cm, onto which was dropped 1 ml of a 500 ppm solution of the ant controller of the present invention. Then, the filter paper was inoculated with Coptotermes formosanus Shiraki. Seven days after the inoculation, percentage of dead insects was investigated, from which mortality was calculated. The test was carried out with triplicate group of 10 insects.

Q: How did the Termite-killing effect turn out when `N#Cc1ccc(CC(NNC(=O)Nc2ccc(OC(F)(F)F)cc2)c2cccc(C(F)(F)F)c2)cc1` (stereo not shown) [Compound 96] was run?
A: A (100)

Q: With `N#Cc1ccc(CC(=NNC(=O)Nc2ccc(OC(F)(F)F)cc2)c2cccc(C(F)(F)F)c2)cc1` [Compound 44] as the compound, how does the Termite-killing effect read?
A: C (89-80)

Q: `N#Cc1ccc(CC(NNC(=O)Nc2ccc(SC(F)(F)F)cc2)c2cccc(Cl)c2)cc1` (stereo not shown) [Compound 92] was tested. Which Termite-killing effect did it give?
A: A (100)

Q: Which Termite-killing effect does the source give for `O=C(C=NN(Cc1ccc([N+](=O)[O-])cc1)c1cccc(Cl)c1)Nc1ccc(Cl)cc1` [Compound 128] here?
A: A (100)

Q: Which Termite-killing effect does the source give for `O=C(NN=C(Cc1ccccc1)c1cccc(Br)c1)Nc1ccc(Cl)cc1` [Compound 24] here?
A: C (89-80)

Q: How did the Termite-killing effect turn out when `N#Cc1ccc(CN(N=CC(=O)Nc2ccc(Cl)cc2)c2cccc(Cl)c2)cc1` [Compound 130] was run?
A: C (89-80)

Q: `N#Cc1ccc(C(O)C(=NNC(=O)Nc2ccc(OC(F)(F)F)cc2)c2ccccc2)cc1` (racemic) [Compound 63] was tested. Which Termite-killing effect did it give?
A: A (100)

Q: How did the Termite-killing effect turn out when `N#Cc1ccc(CC(=NNC(=O)Nc2ccc(S(=O)(=O)C(F)(F)F)cc2)c2cccc(Cl)c2)cc1` [Compound 23] was run?
A: A (100)

Q: `N#Cc1ccc(CN(NCC(=O)Nc2ccc(Cl)cc2)c2cccc(F)c2)cc1` [Compound 153] was tested. Which Termite-killing effect did it give?
A: A (100)

Q: How did the Termite-killing effect turn out when `O=C(NNC(Cc1ccc(Cl)cc1)c1ccccc1)Nc1ccc(OC(F)(F)F)cc1` (racemic) [Compound 86] was run?
A: A (100)

Q: Which Termite-killing effect does the source give for `N#Cc1ccc(CC(=NNC(=O)Nc2ccc(Cl)cc2)c2cccc(I)c2)cc1` [Compound 36] here?
A: B (99-90)

The compounds below were run on fireant (Solenopsis geminata) (assay: Test Example 2: drench treatment of fireant nests). Settings: 1 g of the active ingredient per one nest, 14 days after the treatment.
Format: in vivo
Set-up: key: A: Nest is completely destructed or activity of the nest is extremely low.; B: Activity of the nest is exhibited.; C: High activity of the nest is exhibited.; D: Activity of the nest is extremely high
Experimental: The ant controller of the present invention was applied to nests (anthill) of fireant (Solenopsis geminata) with drench treatment, in terms of 1 g of the active ingredient per one nest. 14 Days after the treatment of the ant controller, the activity of the nests was evaluated according to the following criterion. The test was carried out with one block per one nest.

Q: Which “activity of the nests (effect)” value does the source give for `N#Cc1ccc(CC(NNC(=O)Nc2ccc(OC(F)(F)F)cc2)c2cccc(C(F)(F)F)c2)cc1` (stereo not shown) [Compound 96] here?
A: A

Q: With `N#Cc1ccc(CC(=NNC(=O)Nc2ccc(OC(F)(F)F)cc2)c2cccc(C(F)(F)F)c2)cc1` [Compound 44] as the compound, how does the “activity of the nests (effect)” value read?
A: A
